Reference: PMC6651024, “LIR Motif-Containing Hyperdisulfide β-Ginkgotide is Cytoprotective, Adaptogenic, and Scaffold-Ready” (Molecules, 2019)
“Also recorded” adds a separate entry of the source. Where a SMILES comes first, the peptide text is derived from it.

Assays:
[1] = Thermal stability by far-UV circular dichroism spectroscopy; format: physicochemical; details: heating up to 90 °C (20, 55, 90 °C); 42 µM peptide in sodium phosphate buffer pH 7.5; 190-260 nm
Protocol: The secondary structure and thermal stability of the synthetic β-gB1 were assessed using circular dichroism (CD) spectroscopy. The far-UV CD data of β-gB1 were acquired at 20 °C, and secondary structure composition was predicted using the CDSSTR algorithm with a normalized root mean square deviation (RMSD) value of 0.021. The CD spectroscopy spectra agreed with the predicted secondary structure of folded β-gB1, which consists 28% strands, 16% turns, 1% helices, and 55% unordered structures (Figure 1A). The spectrum is in strike contrast with that of the S-reduced β-gB1, which is devoid of a secondary structure (Figure 1A).
Far-UV CD spectra were recorded for the synthetic and folded β-ginkgotide β-gB1 (42 µM) in a sodium phosphate buffer (pH 7.5) on a Chirascan™ CD spectrometer (Applied Photophysics, Leatherhead, UK) equipped with a temperature controller. Spectra were acquired between 190 and 260 nm from 20 to 90 °C using a 1 mm path-length quartz cuvette, a 1 nm spectral bandwidth, and a 1 nm step size. CD spectroscopy data were analyzed for secondary structure content using CDSSTR [23]. CD data were expressed as mean residue ellipticity (in deg cm^2dmol^−1).

[2] = Enzymatic (proteolytic) stability against trypsin; format: in vitro ADME; details: isolated enzyme trypsin; 800 U/mL trypsin, 0.1 M ammonium bicarbonate buffer pH 7.8, 37 °C, 6 h; 28 µg peptide in 100 µL; MALDI-TOF MS and C18 RP-HPLC; read-out: Peptide remaining intact after trypsin treatment
Protocol: To assess the proteolytic stability of β-gB1, it was treated with trypsin or pepsin for 6 h. […] Similarly, the S-alkylated β-gB1 was degraded completely by pepsin within 30 min. […] This is in agreement with other plant CRPs that contain a compact structure, whose proteolytic stability was examined up to six hours treatment.
The folded β-gB1 (28 µg) was added to 100 μL of a 0.1 M ammonium bicarbonate buffer (pH 7.8) containing 800 U/mL of trypsin or 4 mg/mL of pepsin and incubated at 37 °C for 6 h. At each time-point (0, 1, 2, 4, and 6 h), 20 µL of the treated sample was aliquoted and quenched by adding 5 µL of 1 M hydrochloric acid or 0.8 μL of 1 M sodium hydroxide. The reduced β-gB1 was alkylated with iodoacetamide (S-alkylated β-gB1) and used as a control in this study. The reaction mixture was analyzed by MALDI-TOF MS and C18-reversed-phase HPLC to determine its stability.

[3] = tested on: caspase-3; assay: Western blot of caspase-3 in SH-SY5Y cells; format: cell-based, human; details: triplicates
Protocol: In contrast, the β-gB1-treated cells increased the expression of the LC3B-II isoform by 2.8-fold. […] In addition, the β-gB1-treated cells increased the BECN1 expression by 1.5-fold (Figure 2A,B).
(§1) Rat cardio-myoblast cells (H9c2) and […] neuron-like SH-SY5Y cells were purchased from ATCC and maintained in DMEM (Dulbecco’s modified eagle medium) medium supplemented with 10% fetal bovine serum (FBS), 10,000 U/mL of penicillin, and 10,000 µg/mL of streptomycin at 37 °C, 5% CO2.
A 25 µg equivalent quantity of each protein samples were resolved on a 10% and 15% SDS-PAGE gel accordingly and transferred onto a nitrocellulose membrane. Immunoblotting was performed using anti-protein antibodies against glyceraldehyde 3-phosphate dehydrogenase (GAPDH) (1:5000), LC3B (1:1500), Beclin-1 (1:1500), Caspase-3 (1:1500), and Caspase-9 (1:1500). Blots were developed with Clarity Max Western ECL blotting substrates. Protein bands were quantitated densitometrically using ImageJ software (ImageJ15.0b, Wayen Rasband, NIH, Bethesda, Maryland, USA), expressed relative to GAPDH, and normalized to the vehicle control cells. Statistical calculations and bar graphs were done using GraphPad Prism software (Version 6.01), and three individual experimental data sets were used for the calculation. Data are presented as means ± SD and compared by the Holm–Sidak multiple t-tests method. […]

[4] = tested on: H9c2 cells; assay: MTT-based cell proliferation assay under normoxia, H9c2; design: species or system rat; details: H9c2, 10 µM peptide, 48 h, triplicates
Text: (§2) In addition, β-gB1 is non-toxic to Vero and BHK (baby hamster kidney) cell lines based on an MTT assay. […] LDH is a cytoplasmic enzyme which is rapidly released into the cell culture medium upon plasma membrane damage and is widely used as a marker for cytotoxicity. Thus, an LDH-release assay measures the level of plasma membrane damage to a cell population.
as §1
(§3) Cells were cultured in DMEM with or without β-gB1/S-alkylated β-gB1 (β-gB1Alk) for 48 h under normoxia, hypoxia, and hypoxia-reoxygenation conditions. Phosphate-buffered saline (PBS) was used as a vehicle control. After 48 h, MTT (3-(4,5-dimethylthiazol-2-yl)-2,5-diphenyltetrazolium bromide) reagent was added with a final concentration of 0.5 mg/mL, and it was incubated at 37 °C for 2 h. The culture medium was then aspirated, and purple formazan crystals were dissolved in DMSO for colorimetric quantification at 570 nm using a microplate reader with a reference wavelength of 630 nm. […]

[5] = tested on: SH-SY5Y cells; assay: MTT-based cell proliferation assay under normoxia, SH-SY5Y; design: species or system human; details: 10 µM peptide, 48 h, triplicates
Text: as §2, §1, §3

[6] = tested on: SH-SY5Y cells; assay: LDH release cytotoxicity assay, SH-SY5Y; format: cell-based, mouse; details: 10 µM peptide, 48 h, 37 °C, LDH kit, 450 nm, triplicates
Text: as §2, §1
An LDH release assay was performed using the CytoSelect™ LDH cytotoxicity assay kit (CBA-241, Cell Biolabs, Inc., San Diego, CA, USA). In brief, cells were cultured in DMEM with or without 10 µM of β-gB1 and S-alkylated β-gB1 (β-gB1Alk) for 48 h at 37 °C and 5% CO2. PBS was used for the vehicle control experiment. The culture medium was transferred and mixed with the LDH assay reagent in a ratio of 9:1. The reaction mixture was incubated at 37 °C for 2 h, and colorimetric quantification was performed using a 450 nm wavelength. The assay was performed in experimental triplicates, and statistical calculations and bar graphs were done using GraphPad Prism software (Version 6.01). […]

[7] = tested on: Escherichia coli; details: concentrations up to 100 µM; cited from earlier work
[8] = tested on: Candida albicans; details: concentrations up to 100 µM; cited from earlier work

CC[C@H](C)[C@@H]1NC(=O)[C@@H]2CSSC[C@H](NC(=O)CNC(=O)[C@@H](NC(=O)[C@H](CCC(=O)O)NC(=O)[C@@H](N)Cc3ccc(O)cc3)[C@@H](C)O)C(=O)N[C@@H](CCCCN)C(=O)N[C@@H](CCCNC(=N)N)C(=O)N[C@H]3CSSC[C@@H](C(=O)O)NC(=O)[C@H](CSSC[C@H](NC3=O)C(=O)N[C@@H](Cc3ccc(O)cc3)C(=O)N[C@@H](CC(C)C)C(=O)N[C@@H](CC(=O)O)C(=O)N[C@@H](CCC(=O)O)C(=O)N[C@@H](Cc3ccc(O)cc3)C(=O)NCC(=O)N2)NC(=O)[C@H](CCCNC(=N)N)NC1=O [β-gB1] (HELM PEPTIDE1{Y.E.T.G.C.K.R.C.C.Y.L.D.E.Y.G.C.I.R.C.C}$PEPTIDE1,PEPTIDE1,5:R3-16:R3|PEPTIDE1,PEPTIDE1,8:R3-20:R3|PEPTIDE1,PEPTIDE1,9:R3-19:R3$$$V2.0; N-terminus and C-terminus assumed)
Effect of heating on far-UV CD spectrum (thermal denaturation) [1]: did not alter its CD spectrum
remaining at 6 h [2]: ~90%
Expression of caspase-3 in treated cells [3]: remained unchanged
Cell viability (growth or death) under normoxia [4]: No change in cell viability; also recorded: no significant effect on the growth or death
Cell viability (growth or death) under normoxia [5]: No change in cell viability; also recorded: no significant effect on the growth or death
Cytotoxicity / cell-membrane damage by LDH release [6]: no significant cytotoxicity or cell-membrane damaging effects
Antimicrobial effect [7]: does not exhibit an antimicrobial effect
Antimicrobial effect [8]: does not exhibit an antimicrobial effect
